Experimental data: the supplement of paper PMC4862054
Where “and” joins values, the source holds several entries; their conditions need not be identical. Equal entries are not always repeated.

Tests used:
Experiment in all cases: normalised viability (% of control), CellTiter-Blue; higher = more viable cells (about 100 = DMSO control)
Details in all cases: incubation time: 72 h
[1] = test system: HCC1937
Outline: (§1)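 After 72 h on compound-loaded 384-well plates, breast cancer cell lines received 2.5 µl CellTiter-Blue reagent for 2 h at 37 °C. Fluorescence at 560/590 nm was scaled per plate so that vehicle was 100 and a positive kill control was 0. The value stands for normalised viability at a single listed concentration of the series.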

[2] = test system: CAL-148
Outline: as §1

[3] = test system: SK-BR-3
Outline: as §1

[4] = test system: MDA-MB-453
Outline: as §1

[5] = test system: MDA-MB-468
Outline: as §1

[6] = test system: MDA-MB-436
Outline: as §1

[7] = test system: CAL-51
Outline: as §1

[8] = test system: MDA-MB-231
Outline: as §1

[9] = test system: Hs578T
Outline: as §1

[10] = test system: HCC1143
Outline: as §1

[11] = test system: MFM-223
Outline: as §1

[12] = test system: HCC1599
Outline: as §1

[13] = test system: BT-474
Outline: as §1

[14] = test system: HDQ-P1
Outline: as §1

[15] = test system: DU-4475
Outline: as §1

[16] = test system: BT-549
Outline: as §1

[17] = test system: CAL-85-1
Outline: as §1

CCNC(=O)c1noc(-c2cc(C(C)C)c(O)cc2O)c1-c1ccc(CN2CCOCC2)cc1 [NVP-AUY922]
normalised viability [%]
Details | 0.3 nM | 1 nM | 3 nM | 10 nM | 100 nM | 1000 nM
[1] | – | 58.5 | – | – | 24.7 | 30.7
[2] | 98.7 | – | 108 | 112 | – | –
[3] | – | 106 | – | – | 16.2 | 16.8
[4] | 124 | – | 98 | 83.2 | – | –
[5] | – | 106 | – | – | 27.3 | 23.3
[6] | – | 111 | – | – | 11.2 | 19.9
[7] | 107 | – | 106 | 104 | – | –
[8] | – | 140 | – | – | 39.1 | 31
[9] | – | 110 | – | – | 44.1 | 37.2
[10] | – | 119 | – | – | 45 | 47.7
[11] | – | 97.4 | – | – | 26.1 | 25.4
[12] | – | 101 | – | – | 43.4 | 41.2
[13] | – | 102 | – | – | 27.7 | 22.3
[14] | 94 | – | 97.8 | 64.9 | – | –
[15] | 114 | – | 109 | 87.6 | – | –
[16] | – | 113 | – | – | 29.3 | 31.7
[17] | 101 | – | 96.8 | 102 | – | –

CC1(C)CCC(c2ccc(Cl)cc2)=C(CN2CCN(c3ccc(C(=O)NS(=O)(=O)c4ccc(N[C@H](CCN5CCOCC5)CSc5ccccc5)c(S(=O)(=O)C(F)(F)F)c4)cc3)CC2)C1 [Navitoclax]
normalised viability [%]
Details | 3 nM | 10 nM | 30 nM | 100 nM | 1000 nM | 10000 nM
[1] | – | 87.6 | – | – | 85.8 | 85
[2] | 85.1 | – | 88.2 | 89.2 | – | –
[3] | – | 83.8 | – | – | 86 | 73.2
[4] | 104 | – | 88.5 | 74.9 | – | –
[5] | – | 91.9 | – | – | 81.6 | 71.2
[6] | – | 76.2 | – | – | 98.7 | 71.7
[7] | 112 | – | 104 | 101 | – | –
[8] | – | 74.7 | – | – | 55.7 | 30.6
[9] | – | 91.8 | – | – | 92.2 | 88.8
[10] | – | 71.8 | – | – | 78.1 | 65.3
[11] | – | 77.2 | – | – | 68.7 | 40.6
[12] | – | 94.5 | – | – | 62.2 | 74.7
[13] | – | 96.3 | – | – | 95.2 | 63
[14] | 81.4 | – | 79.7 | 79.3 | – | –
[15] | 88.7 | – | 72.9 | 70.3 | – | –
[16] | – | 80.7 | – | – | 79.7 | 78.1
[17] | 84.1 | – | 81.1 | 85.3 | – | –

Cc1cn(-c2cc(NC(=O)c3ccc(C)c(Nc4nccc(-c5cccnc5)n4)c3)cc(C(F)(F)F)c2)cn1 [Nilotinib]
Details | normalised viability
[1], 10 nM | 86% and 80.5%
[1], 1000 nM | 69.4%
[1], 10000 nM | 71.9% and 73.7%
[2], 3 nM | 77% and 88.5%
[2], 30 nM | 86.2% and 93.4%
[2], 100 nM | 90.8% and 95.3%
[3], 10 nM | 104% and 94.5%
[3], 1000 nM | 100% and 96.5%
[3], 10000 nM | 90.4% and 94.3%
[4], 3 nM | 111% and 103%
[4], 30 nM | 95.6% and 90%
[4], 100 nM | 91.7% and 103%
[5], 10 nM | 100% and 102%
[5], 1000 nM | 108% and 106%
[5], 10000 nM | 97.5% and 108%
[6], 10 nM | 98.2% and 88.3%
[6], 1000 nM | 75.7% and 76.8%
[6], 10000 nM | 92.5% and 75.2%
[7], 3 nM | 107% and 112%
[7], 30 nM | 108% and 106%
[7], 100 nM | 101% and 111%
[8], 10 nM | 87.6% and 94.3%
[8], 1000 nM | 71.3% and 75.2%
[8], 10000 nM | 57.3% and 45.2%
[9], 10 nM | 97.3% and 112%
[9], 1000 nM | 89% and 84.7%
[9], 10000 nM | 106% and 91%
[10], 10 nM | 70.6% and 81.2%
[10], 1000 nM | 98.7% and 101%
[10], 10000 nM | 65% and 65.2%
[11], 10 nM | 92.3% and 91.1%
[11], 1000 nM | 98.9% and 91%
[11], 10000 nM | 91.7% and 89.4%
[12], 10 nM | 93.3% and 95.8%
[13], 10 nM | 107% and 99.8%
[13], 1000 nM | 93.9% and 106%
[13], 10000 nM | 92.1% and 103%
[14], 3 nM | 92.5% and 86.2%
[14], 30 nM | 87.3% and 81.5%
[14], 100 nM | 95.3% and 83.1%
[15], 3 nM | 105% and 98.1%
[15], 30 nM | 96.6% and 119%
[15], 100 nM | 97.6% and 99.3%
[16], 10 nM | 97.3% and 88.6%
[16], 1000 nM | 71.5% and 73.6%
[16], 10000 nM | 43.4% and 40.7%
[17], 3 nM | 87% and 87.5%
[17], 30 nM | 81.8% and 80.2%
[17], 100 nM | 85.7% and 90.7%
